# Earlier results in patent publication US20060134172A1, “Agents which regulate, inhibit, or modulate the activity and/or expression of lysyl oxidase (LOX) and LOX-like proteases as a unique means to both lower intraocular pressure and treat glaucomatous retinopathies/optic neuropathies” (Alcon, Inc., priority 2004, published 2006).
# Target: T1, lysyl oxidase (Homo sapiens, UniProt P28300)
# T1 sequence (P28300 169-417): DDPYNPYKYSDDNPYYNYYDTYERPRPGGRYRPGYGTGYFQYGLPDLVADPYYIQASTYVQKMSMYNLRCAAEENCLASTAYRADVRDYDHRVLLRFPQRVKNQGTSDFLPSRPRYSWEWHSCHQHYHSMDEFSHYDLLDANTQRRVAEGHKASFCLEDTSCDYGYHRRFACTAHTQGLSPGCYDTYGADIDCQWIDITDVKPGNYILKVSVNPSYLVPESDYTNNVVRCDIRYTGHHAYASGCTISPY
# Conditions: known from U.S. Pat. No. 4,444,787
compound,measurement,value
"N#CCCN [β-aminopropionitrile (BAPN), β-aminopropionitrile]",in vitro inhibition of lysyl oxidase,inhibition
